Test systems include COLO 205; EKVX; HOP-62; IGROV-1; M14; MDA-N; MOLT-4; Malme-3M; OVCAR-3; OVCAR-4; OVCAR-8; PC-3; SF-539; SK-MEL-28; SN12C; SNB-75; SW-620; UO-31; Hs-578T; MDA-MB-231.
Holding throughout (assay): DTP human tumour cell line panel, 48 h

SMILES strings stand for the structures.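 How tested: cells in 96-well plates exposed to compound for 48 hours at five concentrations. GI50 marks 50% less growth.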 Activity calls are given as the source filed them. No stated cut-off is given here; in the data, active = GI50 up to about 1.1 µM and inactive = higher.

These results are taken from ChEMBL document CHEMBL1201862, “PubChem BioAssay data set” (2004).

By GI50 is commonly meant the concentration that inhibits growth by half. As for `NC1=C(Cl)C(=O)c2ccccc2C1=O`, the GI50 was 11.3 µM (inactive) with COLO 205; 14.7 µM (inactive) in the test with EKVX; 11.4 µM (inactive) in the test on HOP-62; 9.82 µM (inactive) in the test with IGROV-1; 0.893 µM (active) in the test on M14; 1.63 µM (inactive) with MDA-N. Moreover, the GI50 in the test with MOLT-4 is 5.7 µM (inactive); with Malme-3M, 1.38 µM (inactive); with OVCAR-3, 2.45 µM (inactive); with OVCAR-4, 7.08 µM (inactive); in the test on OVCAR-8, 8.34 µM (inactive); in the test on PC-3, 1.79 µM (inactive). The GI50 was 8.24 µM (inactive) in the test with SF-539; 4.67 µM (inactive) in the test on SK-MEL-28; 5.04 µM (inactive) with SN12C; 11.3 µM (inactive) in the test on SNB-75; 5.42 µM (inactive) with SW-620; 13.7 µM (inactive) in the test with UO-31.
On to `Oc1c(Cl)cc2cc1-c1cc(cc(Cl)c1O)CCc1c(cc(Cl)c(O)c1Cl)-c1cc(Cl)c(c(Cl)c1O)/C=C\2`, for which the GI50 was 8.24 µM (inactive) in the test with COLO 205; 7.74 µM (inactive) with HOP-62; 11.1 µM (inactive) in the test with Hs-578T; 8.99 µM (inactive) in the test on IGROV-1; 7.23 µM (inactive) with M14; 30.2 µM (inactive) in the test with MOLT-4. Besides, the GI50 is 7.4 µM (inactive) with OVCAR-3; 9.04 µM (inactive) in the test on OVCAR-4; 7.91 µM (inactive) with OVCAR-8; 8.3 µM (inactive) with PC-3; 7.08 µM (inactive) with SK-MEL-28; 9.02 µM (inactive) in the test with SNB-75. The GI50 in the test on SW-620 was 9.44 µM (inactive).
On to `COc1ccc(COCCOCc2nc(C#N)c(N)o2)cc1`, for which the GI50 with COLO 205, with EKVX, with HOP-62, in the test with IGROV-1, with M14 and with MDA-MB-231 was > 100 µM (inactive) in each case. In addition, the GI50 with MOLT-4, in the test on OVCAR-3, with OVCAR-4, with OVCAR-8, in the test with PC-3 and in the test on SF-539 was > 100 µM (inactive) each time. The GI50 in the test on SK-MEL-28, in the test with SN12C, in the test on SNB-75, with SW-620 and in the test on UO-31 was > 100 µM (inactive) each time.
`O=C1Cc2c([nH]c3ccccc23)C2(CC3CCCCN13)OCCO2` (stereo not given): the GI50 is > 100 µM (inactive) in the test with COLO 205; > 100 µM (inactive) in the test with EKVX; > 100 µM (inactive) in the test with HOP-62; 89.9 µM (inactive) in the test with Hs-578T; 45.2 µM (inactive) in the test with IGROV-1; > 100 µM (inactive) in the test on M14. For the same compound, the GI50 in the test on MDA-MB-231 is 84.5 µM (inactive); with Malme-3M, 62.2 µM (inactive); in the test on OVCAR-3 it was > 100 µM (inactive); in the test with OVCAR-4, > 100 µM (inactive); in the test on OVCAR-8 it was > 100 µM (inactive); with PC-3, > 100 µM (inactive). For the same compound, the GI50 was > 100 µM (inactive) in the test with SK-MEL-28; > 100 µM (inactive) in the test on SN12C; 62.8 µM (inactive) with SNB-75; > 100 µM (inactive) with SW-620; > 100 µM (inactive) in the test with UO-31.
Take `COc1ccc(Cc2n[nH]c(Nc3ccc(Br)cc3)nc2=O)cc1OC`: the GI50 is > 100 µM (inactive) with COLO 205; > 100 µM (inactive) in the test with EKVX; 42.9 µM (inactive) in the test with HOP-62; 35 µM (inactive) with Hs-578T; > 100 µM (inactive) with IGROV-1; > 89.7 µM (inactive) in the test on M14. The GI50 was 50.1 µM (inactive) in the test with MDA-MB-231; 43.1 µM (inactive) in the test with MOLT-4; 47.2 µM (inactive) with Malme-3M; > 74.3 µM (inactive) with OVCAR-3; > 100 µM (inactive) in the test on OVCAR-4; > 100 µM (inactive) in the test with OVCAR-8. Further, the GI50 with PC-3 was > 92.5 µM (inactive); in the test with SF-539, > 100 µM (inactive); in the test with SK-MEL-28 it was > 89.9 µM (inactive); in the test with SN12C it was > 100 µM (inactive); in the test with SNB-75 it was 28.9 µM (inactive); in the test with SW-620, > 100 µM (inactive). Also, the GI50 in the test with UO-31 was > 76.2 µM (inactive).
As for `COC(=O)N/N=C(\C(=O)Nc1cccc([N+](=O)[O-])c1)c1nc2ccc([N+](=O)[O-])cc2nc1O`, the GI50 with COLO 205 was 37.1 µM (inactive); in the test with EKVX, > 100 µM (inactive); in the test on HOP-62, 26.4 µM (inactive); with IGROV-1 it was 64.6 µM (inactive); in the test on M14, 45.3 µM (inactive); in the test with MOLT-4 it was 52.7 µM (inactive). Further, the GI50 is > 100 µM (inactive) in the test with Malme-3M; 49.8 µM (inactive) in the test on OVCAR-3; > 100 µM (inactive) in the test on OVCAR-4; 83.2 µM (inactive) in the test on OVCAR-8; 39.5 µM (inactive) with SF-539; > 100 µM (inactive) with SK-MEL-28. Further, the GI50 was > 100 µM (inactive) with SN12C, 85.7 µM (inactive) in the test on SNB-75, 45.1 µM (inactive) in the test with SW-620 and 14.5 µM (inactive) with UO-31.
As to `COC(CO[Si](C)(C)N[Si](C)(C)OCC(OC)c1ccccc1)c1ccccc1` (stereo not given), the GI50 with COLO 205, with EKVX, in the test with HOP-62, in the test with IGROV-1, in the test with M14 and in the test on MDA-N was > 100 µM (inactive) each time. Moreover, the GI50 in the test on MOLT-4, in the test on OVCAR-3, in the test with OVCAR-4, in the test on OVCAR-8, with PC-3 and in the test with SK-MEL-28 was > 100 µM (inactive) in each case. Besides, the GI50 in the test with SN12C, in the test on SNB-75, in the test with SW-620 and in the test with UO-31 was > 100 µM (inactive) each time.
Take `CCOP(=O)(OCC)/C(=C\n1c(=S)[nH]c2cc(C)ccc21)C(=O)OC`: the GI50 in the test on COLO 205 is > 100 µM (inactive); in the test with EKVX, 45.8 µM (inactive); with HOP-62, > 100 µM (inactive); with IGROV-1 it was > 100 µM (inactive); in the test on M14, > 100 µM (inactive); in the test with MDA-MB-231, > 100 µM (inactive). Also, the GI50 in the test with MDA-N, in the test on MOLT-4, in the test on OVCAR-3, with OVCAR-4, with OVCAR-8 and with SF-539 was > 100 µM (inactive) in each case. In addition, the GI50 with SK-MEL-28, in the test on SN12C, in the test on SNB-75, in the test with SW-620 and with UO-31 was > 100 µM (inactive) throughout.
With `C=CC1(CC[C@]2(c3ccc(OC)c(OC)c3)C=[N+]([O-])O[C@H](O[C@@H]3CCCC[C@H]3C(C)(C)c3ccccc3)C2)OCC(C)(C)CO1`, the GI50 in the test on COLO 205 was 16.9 µM (inactive); in the test on EKVX, 12.7 µM (inactive); in the test on HOP-62, 14.7 µM (inactive); in the test with IGROV-1 it was 6.82 µM (inactive); in the test with M14 it was 16.3 µM (inactive); with MDA-MB-231 it was 13.5 µM (inactive). Besides, the GI50 in the test on MDA-N was 6.11 µM (inactive); in the test on MOLT-4, 3.78 µM (inactive); in the test with Malme-3M, 7.26 µM (inactive); with OVCAR-3, 6.59 µM (inactive); with OVCAR-4 it was 11.3 µM (inactive); in the test on OVCAR-8 it was 7.64 µM (inactive). The GI50 was 7.23 µM (inactive) in the test with PC-3; 14.8 µM (inactive) with SF-539; 19.9 µM (inactive) in the test on SK-MEL-28; 10.8 µM (inactive) with SN12C; 9.62 µM (inactive) with SNB-75; 22.5 µM (inactive) in the test on SW-620. Besides, the GI50 in the test on UO-31 is 11.5 µM (inactive).
In the case of `O=C1CCCC2=C1CC1=C(CCCC1=O)N2c1ccccc1C(=O)O`, the GI50 with EKVX, in the test on Hs-578T, in the test with IGROV-1, in the test on M14, in the test on MOLT-4 and in the test with OVCAR-3 was > 100 µM (inactive) each time. Besides, the GI50 with OVCAR-4, in the test with OVCAR-8, with PC-3, with SF-539, in the test with SK-MEL-28 and in the test on SN12C was > 100 µM (inactive) in each case. For the same compound, the GI50 in the test on SNB-75, in the test on SW-620 and in the test on UO-31 was > 100 µM (inactive) in each case.
Turning to `c1ccc([P+](CCSCCSCC[P+](c2ccccc2)(c2ccccc2)c2ccccc2)(c2ccccc2)c2ccccc2)cc1`, the GI50 in the test on COLO 205, in the test with EKVX, in the test with HOP-62, in the test on Hs-578T, with IGROV-1 and in the test with M14 was > 100 µM (inactive) in each case. For the same compound, the GI50 in the test on MDA-MB-231, in the test with MDA-N, in the test on MOLT-4, in the test with OVCAR-3, with OVCAR-4 and in the test on OVCAR-8 was > 100 µM (inactive) in each case. The GI50 in the test on SF-539, in the test on SK-MEL-28, in the test with SN12C, with SNB-75, in the test with SW-620 and in the test on UO-31 was > 100 µM (inactive) each time.
